Holding throughout (type): cell-based
The test system of assay [1] is SK-MEL-28 tumor cells. The assay can be described thus: Method C: Cell Growth Inhibition Assay (CellTiter-Glo), SK-MEL-28. Particulars: Homo sapiens, SK-MEL-28, 72 h, 3 days, 4-parameter fit. The gist of the method: (§1)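 Luminescent ATP signal (CellTiter-Glo, after 30 min room-temperature equilibration) served as a surrogate for cell number after a 3-day compound exposure at 37° C. Cells were plated at 500/well and treated with serially diluted compound at 0.2% DMSO. IC50 values are 4-parameter fits against DMSO-treated wells.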
Background: Cellular ATP, detected with luciferase, serves as a proxy for viable cell number.

Assay [2] deals with Colo205 tumor cells. Description: Method B: CellTiter-Glo Growth Inhibition Assay, Colo205. Particulars: Homo sapiens, COLO 205, 72 h, 3 days. Summed up:
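Cells plated (BT474 3,000, HN5 500, Colo205 3,000 per well) in RPMI or DMEM with 10% FBS; compounds added next day, final DMSO 0.3%, then 3 days at 37° C, 5% CO2. Viability by CellTiter-Glo luminescence; percent inhibition versus vehicle, IC50 interpolated by nonlinear regression.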

Assay [3] relates to A375P F11s tumor cells. Description: Method C: Cell Growth Inhibition Assay (CellTiter-Glo), A375P F11s. The following applies: Homo sapiens, 72 h, 3 days, 4-parameter fit. Summed up: as §1
In assay [4] the test system is SK-MEL-3 tumor cells. The assay can be described thus: Method C: Cell Growth Inhibition Assay (CellTiter-Glo), SK-MEL-3. The following applies: Homo sapiens, SK-MEL3, 72 h, 3 days, 4-parameter fit. Summed up:
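500 cells/well; next-day compound, 1:3 serial dilutions, 0.2% DMSO final; 3 d, 37° C, 5% CO2. Readout: CellTiter-Glo luminescence (total ATP as cell-number surrogate). IC50 from 4-parameter fit of % growth inhibition vs vehicle.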

A value given as a limit tells only on which side of the number the result lay.

Regarding `Cc1nc(-c2cccc(NC(=O)c3cc(F)ccc3F)c2)c(-c2ccnc(Nc3ccc(OCCN(C)C)c(Cl)c3)n2)o1` [Example 142], the IC50 in assay [1] and in assay [2] was above 1000 nM in each case.
As for `CCc1nc(-c2cccc(NC(=O)c3c(F)cccc3F)c2)c(-c2ccnc(Nc3cccc(CN4CCCC4)c3)n2)s1` [Example 115, N-{3-[2-Ethyl-5-(2-{[3-(1-pyrrolidinylmethyl)phenyl]amino}-4-pyrimidinyl)-1,3-thiazol-4-yl]phenyl}-2,6-difluorobenzamide], the IC50 (usually the midpoint of a concentration-inhibition curve) in assay [1] is above 1000 nM; in assay [3] it was above 1000 nM; in assay [4], 100 to 1000 nM.
For `Cc1nc(-c2cccc(NC(=O)c3c(F)cccc3F)c2)c(-c2ccnc(Nc3ccc(OCCN(C)C)c(Cl)c3)n2)s1` [Example 103, N-[3-(5-{2-[(3-Chloro-4-{[2-(dimethylamino)ethyl]oxy}phenyl)amino]-4-pyrimidinyl}-2-methyl-1,3-thiazol-4-yl)phenyl]-2,6-difluorobenzamide], the IC50 in assay [1] and in assay [2] was above 1000 nM throughout.
As for `Nc1nc(-c2cccc(C(=O)Nc3c(F)cccc3F)c2)c(-c2ccnc(Nc3cccc(CN4CCCC4)c3)n2)s1` [Example 77, 3-[2-Amino-5-(2-{[3-(1-pyrrolidinylmethyl)phenyl]amino}-4-pyrimidinyl)-1,3-thiazol-4-yl]-N-(2,6-difluorophenyl)benzamide], the IC50 in assay [1] is above 1000 nM; in assay [2] it was below 100 nM; in assay [3], 100 to 1000 nM; in assay [4], below 100 nM.
As to `CCNc1nc(-c2cccc(NC(=O)C3CC3)c2)c(-c2ccnc(Nc3ccc(OCCN4CCCC4)c(Cl)c3)n2)s1` [Example 63, N-{3-[5-{2-[(3-Chloro-4-{[2-(1-pyrrolidinyl)ethyl]oxy}phenyl)amino]-4-pyrimidinyl}-2-(ethylamino)-1,3-thiazol-4-yl]phenyl}cyclopropanecarboxamide], the IC50 was above 1000 nM in assay [1], 100 to 1000 nM in assay [2], 100 to 1000 nM in assay [3] and 100 to 1000 nM in assay [4].
For the compound `COc1ccc(Nc2nccc(-c3sc(N)nc3-c3cccc(NC(=O)c4c(F)cccc4F)c3)n2)cc1N1CCNCC1` [Example 18, N-[3-(2-Amino-5-{2-[(4-methoxy-3-piperaziN-1-ylphenyl)amino]pyrimidiN-4-yl}-1,3-thiazol-4-yl)phenyl]-2,6-difluorobenzamide], the IC50 in assay [1] was above 1000 nM.
Still for that read-out and setting: then `Cc1nc(-c2cccc(NC(=O)c3c(F)cccc3F)c2)c(-c2ccnc(Nc3ccc(OC4CCN(C(=O)OCc5ccccc5)CC4)c(F)c3)n2)s1` [Example 106], with above 1000 nM.
